Like-named read-outs stand apart in the source and are kept apart here.

Consider 27 compounds from patent publication US7033772B1, “Methods of identifying inhibitors of fatty acid transport proteins (FATP)” (Millennium Pharmaceuticals, Inc., priority 1998, dated 2006).

In one series the target is T1, FATP4 (Homo sapiens, UniProt Q6P1M0).
T1 construct: expressed in transfected cells; host or cells: 293 cells (human kidney), stably transfected with pIRES-neo-hsFATP4, G418-selected
In words: Competition of Bodipy-FA uptake by FATP4 expressing cells (FACS). In kind it is cell-based. The conditions noted are these: for inhibition at 100 µM: read-out: Competition (inhibition of Bodipy-FA uptake). How it is done: Bodipy-FA uptake assays using FACS were performed, adapted to a 96-well format. LCFA uptake assays with enterocytes or with stably transfected 293 cells were done as follows. Mixed micelles of radiolabeled FA (NEN) and taurocholate (Sigma) in HBS were generated by brief sonication at 37° C. […] Final taurocholate concentration was 5 mM. Cells were incubated for the indicated amount of time at 37° C. The assay was stopped by transferring the cells onto filter paper followed by extensive washes with ice-cold HBS containing 0.1% BSA using a cell harvester (Brandell). Incorporated oleate was then determined by β-scintillation counting (Beckman).

The next series deals with 293 cells. The series is described as follows: Uptake of radiolabeled substrates by control (vector) 293 cells. Format: cell-based, human. The conditions noted are these: 10 μM substrate in HBS with 5 mM taurocholate; rate over 4 min. How it is done: (§1) Several of the cell lines with the highest amount of Bodipy-FA uptake as well as isolated primary enterocytes were used to measure the uptake of radiolabeled FAs.
(§2) Bodipy-FA uptake assays using FACS were performed, adapted to a 96-well format. LCFA uptake assays with enterocytes or with stably transfected 293 cells were done as follows. Mixed micelles of radiolabeled FA (NEN) and taurocholate (Sigma) in HBS were generated by brief sonication at 37° C. Equal volumes of cells and micelle solution were mixed, resulting in a final FA concentration of 25 μM for antisense assays and 10 μM for substrate specificity assays. Final taurocholate concentration was 5 mM. Cells were incubated for the indicated amount of time at 37° C. The assay was stopped by transferring the cells onto filter paper followed by extensive washes with ice-cold HBS containing 0.1% BSA using a cell harvester (Brandell). Incorporated oleate was then determined by β-scintillation counting (Beckman).

The target in another series is T2, hsFATP4 (Homo sapiens, UniProt Q6P1M0).
T2 construct: expressed in transfected cells; host or cells: 293 cells (human kidney), stably transfected with pIRES-neo-hsFATP4, G418-selected
T2 sequence (Q6P1M0 whole entry): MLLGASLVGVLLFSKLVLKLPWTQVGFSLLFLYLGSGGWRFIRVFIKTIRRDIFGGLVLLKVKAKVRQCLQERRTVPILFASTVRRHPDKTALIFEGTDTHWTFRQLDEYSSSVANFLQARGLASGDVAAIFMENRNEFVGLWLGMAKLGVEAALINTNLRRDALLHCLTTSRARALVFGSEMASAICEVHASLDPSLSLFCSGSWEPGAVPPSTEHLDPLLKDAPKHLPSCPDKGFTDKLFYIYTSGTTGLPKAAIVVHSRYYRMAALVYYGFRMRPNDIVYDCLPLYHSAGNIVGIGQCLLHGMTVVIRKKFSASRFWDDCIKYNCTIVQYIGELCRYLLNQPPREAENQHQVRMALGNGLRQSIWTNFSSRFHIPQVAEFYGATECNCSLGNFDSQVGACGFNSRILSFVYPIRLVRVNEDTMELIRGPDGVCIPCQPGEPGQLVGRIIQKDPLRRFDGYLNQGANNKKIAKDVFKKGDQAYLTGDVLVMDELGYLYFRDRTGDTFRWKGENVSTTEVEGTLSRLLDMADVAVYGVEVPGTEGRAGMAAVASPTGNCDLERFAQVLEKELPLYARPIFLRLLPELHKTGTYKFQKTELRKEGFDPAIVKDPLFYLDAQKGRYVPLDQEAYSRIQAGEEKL
The series is described as follows: Uptake of radiolabeled substrates by 293 cells stably expressing FATP4. In kind it is cell-based. The conditions noted are these: for Uptake, 293 Cells Stably Expressing FATP4: 10 μM substrate in HBS with 5 mM taurocholate, rate over 4 min; for Uptake, FATP4 specific: FATP4-expressing minus control 293 cells, 10 μM substrate, 5 mM taurocholate; for Effect of hsFATP4 expression on uptake of the substrate (in words): stably transfected 293 cells vs vector. How it is done: Using a mammalian expression vector, we generated 40 stable […] cell lines expressing hsFATP4 and 20 cell lines transfected with a control plasmid.
as §1, §2

In series [1] the test system is enterocytes. In words: Uptake of radiolabeled substrates by isolated primary enterocytes. Format: cell-based, mouse. As to conditions: for Uptake, Enterocytes: 10 μM substrate in HBS with 5 mM taurocholate, rate over 4 min; for Transport of the substrate by isolated primary enterocytes (in words): compared with transfected 293 cells. How it is done:
as §1, §2

The test system of a further series is FATP4 mRNA. The series is described as follows: Oleate uptake by isolated mouse enterocytes after incubation with FATP4 oligonucleotides. The conditions noted are these: 100 μM oligonucleotide; for Inhibition of fatty acid (oleate) uptake over time: 48 h, 25 μM oleate, FIG. 40. In kind it is cell-based.
For series [2], the system named is enterocytes. The series is described as follows: 35S-methionine uptake by cultured enterocytes after oligonucleotide treatment (specificity control). Format: cell-based, mouse. The conditions noted are these: 100 μM oligonucleotide, 48 h; FIG. 42. How it is done:
As a further control experiment, the uptake of oleate was measured along with the uptake of methionine in the same cultured enterocytes. Antisense oligonucleotide, mismatch sequence oligonucleotide, or no oligonucleotide was added to a concentration of 100 μM to cultures of enterocytes. After incubation for 48 hours, the uptake of both ^3H-labeled oleate and ^35S-labeled methionine was assayed. Fatty acid uptake is at the left side of the paired bars; methionine uptake is on the right side of the paired bars.

The mark [3] stands for this setting: 5 μM Bodipy-FA, 100 μM competitor (20-fold molar excess), 100% = effect of 200 μM lauric acid.

T1 sequence (Q6P1M0 whole entry): as above

In the case of “Ergocalciferol [Ergocalciferol (Vitamin D2)]”, the “Competition (inhibition of Bodipy-FA uptake)” value at FATP4 (setting [3]) was “− (0%-30% inhibition by the indicated substance)”.
For orientation: inhibition means the drop in the measured response relative to a control, in per cent. For the compound `CCCCCCCCCCCCCCCC(=O)O` [Palmitate, Palmitic Acid], in the series with 293 cells, the “Uptake, 293 Cells Control” value is reported as 564 pmol/min 10^6 cells. Further, at hsFATP4, the “Uptake, 293 Cells Stably Expressing FATP4” value stood at 1695 pmol/min 10^6 cells and the “Uptake, FATP4 specific” value turned out to be 1131 pmol/min 10^6 cells. Besides, the “Enhancement of rate of uptake by hsFATP4 expression over 293 cells transfected with vector alone” value on hsFATP4 (stably transfected 293 cells, FIG. 97) is recorded as “approximately 3 fold”. For the same compound, in the series on enterocytes [1], the “Uptake, Enterocytes” value was 3036 pmol/min 10^6 cells and the “Transport of the substrate by isolated primary enterocytes (in words)” value (“Transport of the substrate” below) is given as “preference”. Also, the inhibition at 100 µM on FATP4 (setting [3]) is 70 to 100%.
Turning to `CCCCCCCCCCCCCCCCCCCCCCCCCC(=O)O` [Cerotic Acid], the inhibition at 100 µM on FATP4 (setting [3]) lay within 70 to 100%.
Same read-out and setting: the value for `CCCCCCCCCCCCCCCC(=O)OC` [Palmitic Acid Methyl Ester] was 0 to 30%.
In the case of `CC(C)CCC[C@@H](C)[C@H]1CC[C@H]2[C@@H]3CC=C4C[C@@H](O)CC[C@]4(C)[C@H]3CC[C@]12C` [Cholesterol], the “Uptake, 293 Cells Control” value with 293 cells came to 319 pmol/min 10^6 cells. In addition, on hsFATP4, the “Uptake, 293 Cells Stably Expressing FATP4” value amounted to 345 pmol/min 10^6 cells; the “Uptake, FATP4 specific” value is on record as 26 pmol/min 10^6 cells; the “Effect of hsFATP4 expression on uptake of the substrate (in words)” value (“Effect of hsFATP4 expression” below) is “not”. Further, in the series with enterocytes [1], the “Uptake, Enterocytes” value turned out to be 531 pmol/min 10^6 cells and the “Transport of the substrate” value is “more robust transport”.
In the case of `CCCCCCCC/C=C\CCCCCCCC(=O)O[C@H]1CC[C@@]2(C)C(=CC[C@H]3[C@@H]4CC[C@H]([C@H](C)CCCC(C)C)[C@@]4(C)CC[C@@H]32)C1` [Cholesteryl Oleate], the “Competition (inhibition of Bodipy-FA uptake)” value on FATP4 (setting [3]) was “− (0%-30% inhibition by the indicated substance)”.
Regarding `CCCCCCCCCCCCCCCCCCCCCCCC(=O)O` [Lignoceric Acid], the inhibition at 100 µM on FATP4 is 70 to 100%.
`CCCCCCCC(=O)O` [Octanoate, Caprylic Acid]: the “Uptake, 293 Cells Control” value in the series on 293 cells was 0 pmol/min 10^6 cells. At hsFATP4, the “Uptake, 293 Cells Stably Expressing FATP4” value is 0 pmol/min 10^6 cells; the “Uptake, FATP4 specific” value came to 0 pmol/min 10^6 cells; the “Effect of hsFATP4 expression” value is reported as “not”. In addition, in the series with enterocytes [1], the “Uptake, Enterocytes” value worked out at 5 pmol/min 10^6 cells and the “Transport of the substrate” value is reported as “absence of transport”. Also, the inhibition at 100 µM on FATP4 was 0 to 30%.
Turning to `CCCCCCCCCCCCCCCCCCCC(=O)O` [Arachidic Acid], the inhibition at 100 µM at FATP4 (setting [3]) lay in the range of 70 to 100%.
As for “FATP4-AS2: Antisense oligo CCCCCACCAGAGAGGCTCC (SEQ ID NO:103), complementary to nucleotides 10 to 28 of the mouse FATP4 coding sequence (chemistry not given here)”, the “Inhibition of fatty acid (oleate) uptake over time” value in the series with FATP4 mRNA is approximately 50%. Moreover, in the series with FATP4 mRNA (48 h incubation, FIG. 41), the “Inhibition of oleate uptake over a 5 minute interval” value is approximately 50%. Besides, the “Methionine (amino acid) uptake” value with enterocytes [2] is listed as “not influenced”.
As for `CCCCCCCCCCCCCC(=O)O` [Myristic Acid], the inhibition at 100 µM on FATP4 was in the range of 70 to 100%.
For the compound `CCCCCCCC/C=C\CCCCCCCC(=O)O` [Oleate, Oleic Acid], in the series on 293 cells, the “Uptake, 293 Cells Control” value is 662 pmol/min 10^6 cells. Moreover, at hsFATP4, the “Uptake, 293 Cells Stably Expressing FATP4” value stood at 1122 pmol/min 10^6 cells; the “Uptake, FATP4 specific” value was 459 pmol/min 10^6 cells; the “Effect of hsFATP4 expression” value is given as “accelerated the uptake”. In the series with enterocytes [1], the “Uptake, Enterocytes” value was found to be 117 pmol/min 10^6 cells and the “Transport of the substrate” value is given as “preference”. Further, the “Competition (inhibition of Bodipy-FA uptake)” value on FATP4 (setting [3]) is given as “++ (70%-100% inhibition)”.
Consider “FATP4-S2: Sense control oligo GGAGCCTCTCTGGTGGGGG (SEQ ID NO:105) (chemistry not given here)”, for which the “Inhibition of fatty acid (oleate) uptake over time” value in the series on FATP4 mRNA is given as “did not significantly influence the uptake”.
Turning to `CCCCC[C@H](O)/C=C/[C@H]1[C@H](O)CC(=O)[C@@H]1C/C=C\CCCC(=O)O` [Prostaglandin E2], the “Competition (inhibition of Bodipy-FA uptake)” value at FATP4 (setting [3]) was “− (0%-30% inhibition by the indicated substance)”.
`CCCCC/C=C\C/C=C\C/C=C\C/C=C\CCCC(=O)O` [Arachidonate]: in the series on 293 cells, the “Uptake, 293 Cells Control” value came out at 3 pmol/min 10^6 cells. In the series with enterocytes [1], the “Uptake, Enterocytes” value was 0 pmol/min 10^6 cells.
On to `CCCCCCCC/C=C\CCCCCCCCOC(=O)CCCCCCC/C=C\CCCCCCCC` [Oleic Acid Oley Ester], for which, at FATP4 (setting [3]), the “Competition (inhibition of Bodipy-FA uptake)” value is “− (0%-30% inhibition by the indicated substance)”.
For the compound `CCCCCCCC/C=C\CCCCCCCC(=O)SCCNC(=O)CCNC(=O)[C@H](O)C(C)(C)COP(=O)(O)OP(=O)(O)OC[C@H]1O[C@@H](n2cnc3c(N)ncnc32)[C@H](O)[C@@H]1OP(=O)(O)O` [Oleoyl CoA], the inhibition at 100 µM on FATP4 (setting [3]) is 0 to 30%.
Regarding `CCCC(=O)O` [Butyrate, Butyric Acid], the “Uptake, 293 Cells Control” value with 293 cells turned out to be 0 pmol/min 10^6 cells. Also, in the series on enterocytes [1], the “Uptake, Enterocytes” value stood at 73 pmol/min 10^6 cells and the “Transport of the substrate” value is “absence of transport”.
With `CCCCCCCC/C=C\CCCCCCCC(=O)OCC` [Oleic Acid Ethyl Ester], at FATP4 (setting [3]), the inhibition at 100 µM lay in the range of 0 to 30%.
Regarding `CC1=C(C/C=C(\C)CCC[C@H](C)CCC[C@H](C)CCCC(C)C)C(=O)c2ccccc2C1=O` [3-Phytylamenadione (Vitamin K1), 3-Phytylamenadione], the “Competition (inhibition of Bodipy-FA uptake)” value on FATP4 (setting [3]) is on record as “− (0%-30% inhibition by the indicated substance)”.
Consider `CCCCCCCCCCCCCCCCCC(=O)OC` [Stearic Acid Methyl Ester], for which the inhibition at 100 µM on FATP4 is 0 to 30%.
As to `CCCCC/C=C\C/C=C\CCCCCCCC(=O)O` [Linolate, Linoleic Acid], the “Uptake, 293 Cells Control” value in the series with 293 cells is 640 pmol/min 10^6 cells. Moreover, at hsFATP4, the “Uptake, 293 Cells Stably Expressing FATP4” value was 673 pmol/min 10^6 cells; the “Uptake, FATP4 specific” value is given as 33 pmol/min 10^6 cells; the “Effect of hsFATP4 expression” value was “not”. Moreover, in the series with enterocytes [1], the “Uptake, Enterocytes” value is 116 pmol/min 10^6 cells and the “Transport of the substrate” value is listed as “more robust transport”. Besides, the inhibition at 100 µM at FATP4 (setting [3]) was 70 to 100%.
For `CCCCCCCCCC(=O)O` [Capric Acid], the inhibition at 100 µM at FATP4 (setting [3]) lay in the range of 70 to 100%.
Still for that read-out and setting: the value for `CCCCCCCCCCCCCCCCCC(=O)O` [Stearic Acid] was 50 to 70%.
Same read-out and setting: then `CC1=C(/C=C/C(C)=C/C=C/C(C)=C/C(=O)O)C(C)(C)CCC1` [Retinoic Acid (Pro-Vitamin A), Retinoic Acid], with 30 to 50%.
Turning to `CCCCCC(=O)O` [Caproic Acid], the inhibition at 100 µM on FATP4 was in the range of 0 to 30%.
As for Tocopherol [Tocopherol (Vitamin E)], the “Competition (inhibition of Bodipy-FA uptake)” value at FATP4 (setting [3]) is reported as “− (0%-30% inhibition by the indicated substance)”.
